# Patent US20230115208A1, “RING-FUSED THIAZOLINO 2-PYRIDONES, METHODS FOR PREPARATION THEREOF AND THEIR USE IN THE TREATMENT AND/OR PREVENTION OF TUBERCULOSIS” (QURETECH BIO AB, priority 2016, published 2023)
# Test system: Mycobacterium tuberculosis Erdman
# Assay: Biofilm inhibition of Mycobacterium tuberculosis (ocular inspection)
# Format: cell-based
# Conditions: for minimal effective concentration: concentration at which full biofilm inhibition took place, replicate determinations in one cell; for inhibition at 25 µM / inhibition at 50 µM / inhibition at 10 µM / inhibition at 100 µM: biofilm inhibition, average of three or more measurements (100/50/0% scoring); for inhibition at 25 µM: read-out: Average % Inhibition at 25 μM; for inhibition at 10 µM: read-out: Average % Inhibition at 10 μM
SMILES,minimal effective concentration [µM],inhibition at 25 µM [%],inhibition at 50 µM [%],inhibition at 10 µM [%],inhibition at 100 µM [%]
"N[C@@H]1CSc2c(C3CC3)c(Cc3cccc4ccccc34)cc(=O)n21 [Example 33, (3S)-3-Amino-7-cyclopropyl-6-[(1-naphthyl)methyl]-1-thia-3a-aza-4-indanone]",25,,,,
"O=C(O)[C@@H]1CSc2c(C3CC3)c(Cc3ccc(Br)c4ccccc34)cc(=O)n21 [Example 30, (3R)-6-[(4-Bromo-1-naphthyl)methyl]-7-cyclopropyl-4-oxo-1-thia-3a-aza-3-indancarboxylic acid]",50,,,,
"O=C(NS(=O)(=O)c1ccccc1)[C@@H]1CSc2c(C3CC3)c(Cc3cccc4ccccc34)cc(=O)n21 [Example 22, {(3R)-7-Cyclopropyl-6-[(1-naphthyl)methyl]-4-oxo-1-thia-3a-aza-3-indanyl}(phenylsulfonylamino)formaldehyde]",,38,25,,
"O=C(O)[C@@H]1[C@@H](c2ccccc2)Sc2c(C3CC3)c(Cc3cccc4ccccc34)cc(=O)n21 [Example 34, (2R,3R)-7-Cyclopropyl-6-[(1-naphthyl)methyl]-4-oxo-2-phenyl-1-thia-3a-aza-3-indancarboxylic acid]",30,,25,,
"O=C(O)C1CS(=O)(=O)c2c(C3CC3)c(Cc3cccc4ccccc34)cc(=O)n21 (stereo not drawn) [Example 42, 7-Cyclopropyl-6-[(1-naphthyl)methyl]-1,1-dioxo-4-oxo-1-thia-3a-aza-3-indancarboxylic acid]",,12,12,50,
"CC(C)c1c(Cc2cccc3ccccc23)cc(=O)n2c1SC[C@H]2C(=O)O [Example 23, (3R)-7-Isopropyl-6-[(1-naphthyl)methyl]-4-oxo-1-thia-3a-aza-3-indancarboxylic acid]",,12,50,,
"O=C(O)[C@@H]1CSc2c(-c3cccs3)c(Cc3cccc4ccccc34)cc(=O)n21 [Example 17, (3R)-6-[(1-Naphthyl)methyl]-4-oxo-7-(2-thienyl)-1-thia-3a-aza-3-indancarboxylic acid]",50,38,100,25,
"O=C(O)[C@@H]1CSc2c(C3CC3)c(Cc3cccc(Cl)c3Cl)cc(=O)n21 [Example 20, (3R)-7-Cyclopropyl-6-[(2,3-dichlorophenyl)methyl]-4-oxo-1-thia-3a-aza-3-indancarboxylic acid]",25,100,100,75,
"CC(C)COc1c(Cc2cccc3ccccc23)cc(=O)n2c1SC[C@H]2C(=O)O [Example 48, (3R)-7-Isobutoxy-6-[(1-naphthyl)methyl]-4-oxo-1-thia-3a-aza-3-indancarboxylic acid]",,,50,,
"O=C(NNC(=O)C1CSc2c(C3CC3)c(Cc3cccc4ccccc34)cc(=O)n21)c1ccncc1 (stereo not drawn) [Example 38, {7-Cyclopropyl-6-[(1-naphthyl)methyl]-4-oxo-1-thia-3a-aza-3-indanyl}(2-isonicotinoylhydrazino)formaldehyde]",25,100,100,100,
"O=C(O)c1c(-c2ccccc2)sc2c(C3CC3)c(Cc3cccc4ccccc34)cc(=O)n12 [Example 13, 5-Cyclopropyl-4-[(1-naphthyl)methyl]-2-oxo-8-phenyl-7-thia-1-azabicyclo[4.3.0]nona-3,5,8-triene-9-carboxylic acid]",50,75,100,62,
"CO[C@H]1Sc2c(C3CC3)c(Cc3cccc4ccccc34)cc(=O)n2[C@@H]1C(=O)O [Example 35, (2S,3R)-7-Cyclopropyl-2-methoxy-6-[(1-naphthyl)methyl]-4-oxo-1-thia-3a-aza-3-indancarboxylic acid]",50,25,,,75
"O=C(O)C1CSc2c(C3CC3)c(Cc3cccc(C(F)(F)F)c3)cc(=O)n21 (stereo not drawn) [Example 36, 7-Cyclopropyl-4-oxo-6-{[m-(trifluoromethyl)phenyl]methyl}-1-thia-3a-aza-3-indancarboxylic acid]",,100,100,100,
"O=C(O)[C@@H]1CSc2c(C3CC3)c(Cc3ccc(Cl)cc3)cc(=O)n21 [Example 25, (3R)-6-[(p-Chlorophenyl)methyl]-7-cyclopropyl-4-oxo-1-thia-3a-aza-3-indancarboxylic acid]",,12,50,,
"O=C(O)[C@@H]1CSc2c(C3CC3)c(Cc3cccc4ccccc34)c(CO)c(=O)n21 [Example 32, (3R)-7-Cyclopropyl-5-(hydroxymethyl)-6-[(1-naphthyl)methyl]-4-oxo-1-thia-3a-aza-3-indancarboxylic acid]",50,,,,
"O=C(O)[C@@H]1CSc2c(OCC3CC3)c(Cc3cccc4ccccc34)cc(=O)n21 [Example 50, (3R)-7-(Cyclopropylmethoxy)-6-[(1-naphthyl)methyl]-4-oxo-1-thia-3a-aza-3-indancarboxylic acid]",,,25,,
"COc1ccc2ccccc2c1Cc1cc(=O)n2c(c1C1CC1)SC[C@H]2C(=O)O [Example 49, (3R)-7-Cyclopropyl-6-[(2-methoxy-1-naphthyl)methyl]-4-oxo-1-thia-3a-aza-3-indancarboxylic acid]",25,,,,
"Cc1cccc(Cc2cc(=O)n3c(c2C2CC2)SC[C@H]3C(=O)O)c1 [Example 27, (3R)-7-Cyclopropyl-4-oxo-6-[(m-tolyl)methyl]-1-thia-3a-aza-3-indancarboxylic acid]",25,88,100,75,
"O=C(O)c1c(-c2ccsc2)sc2c(C3CC3)c(Cc3cccc4ccccc34)cc(=O)n12 [Example 6, 5-Cyclopropyl-4-[(1-naphthyl)methyl]-2-oxo-8-(3-thienyl)-7-thia-1-azabicyclo[4.3.0]nona-3,5,8-triene-9-carboxylic acid]",30,88,100,50,100
"Cc1cccc(NCc2cc(=O)n3c(c2C2CC2)SC[C@H]3C(=O)O)c1C [Example 43, (3R)-7-Cyclopropyl-4-oxo-6-[(2,3-xylidino)methyl]-1-thia-3a-aza-3-indancarboxylic acid]",,50,100,,
"O=C(O)[C@@H]1CSc2c(C(F)(F)F)c(Cc3cccc4ccccc34)cc(=O)n21 [Example 47, (3R)-6-[(1-Naphthyl)methyl]-4-oxo-7-(trifluoromethyl)-1-thia-3a-aza-3-indancarboxylic acid]",> 50,,100,,
"O=C(O)[C@@H]1CSc2c(C3CC3)c(Cc3cccc4ccccc34)c(Br)c(=O)n21 [Example 41, (3R)-5-Bromo-7-cyclopropyl-6-[(1-naphthyl)methyl]-4-oxo-1-thia-3a-aza-3-indancarboxylic acid]",,62,88,25,100
"COc1ccc(Cc2cc(=O)n3c(c2C2CC2)SCC3C(=O)O)c2ccccc12 (stereo not drawn) [Example 39, 7-Cyclopropyl-6-[(4-methoxy-1-naphthyl)methyl]-4-oxo-1-thia-3a-aza-3-indancarboxylic acid]",,100,100,50,
"O=C(O)[C@H]1CSc2c(C3CC3)c(Cc3cccc4ccccc34)cc(=O)n21 [Example 5, (3S)-7-Cyclopropyl-6-[(1-naphthyl)methyl]-4-oxo-1-thia-3a-aza-3-indancarboxylic acid]",5,100,100,100,
"CON(C)C(=O)[C@@H]1CSc2c(C3CC3)c(Cc3cccc4ccccc34)cc(=O)n21 [Example 11, (N-Methylmethoxyamino){(3R)-7-cyclopropyl-6-[(1-naphthyl)methyl]-4-oxo-1-thia-3a-aza-3-indanyl}formaldehyde]",,38,88,75,
"NC(=O)[C@@H]1CSc2c(C3CC3)c(Cc3cccc4ccccc34)cc(=O)n21 [Example 21, (3R)-7-Cyclopropyl-6-[(1-naphthyl)methyl]-4-oxo-1-thia-3a-aza-3-indancarboxamide]",,100,100,12,
"CS(=O)(=O)NC(=O)[C@@H]1CSc2c(C3CC3)c(Cc3cccc4ccccc34)cc(=O)n21 [Example 26, {(3R)-7-Cyclopropyl-6-[(1-naphthyl)methyl]-4-oxo-1-thia-3a-aza-3-indanyl}(methylsulfonylamino)formaldehyde]",50,,,,
"CCC(CO)NCCNC(CC)COC(=O)C1CSc2c(C3CC3)c(Cc3cccc4ccccc34)cc(=O)n21 (stereo not drawn) [Example 37, 2-{2-[1-(Hydroxymethyl)propylamino]ethylamino}butyl 7-cyclopropyl-6-[(1-naphthyl)methyl]-4-oxo-1-thia-3a-aza-3-indancarboxylate]",,100,100,100,
"Cc1ccc(F)c(Cc2cc(=O)n3c(c2C2CC2)SC[C@H]3C(=O)O)c1 [Example 8, (3R)-7-Cyclopropyl-6-[(2-fluoro-5-methyl-phenyl)methyl]-4-oxo-1-thia-3a-aza-3-indancarboxylic acid]",25,63,75,75,
"O=C(O)[C@@H]1CSc2c(C3CC3)c(COc3cccc4ccccc34)cc(=O)n21 [Example 7, (3R)-7-Cyclopropyl-6-[(1-naphthyloxy)methyl]-4-oxo-1-thia-3a-aza-3-indancarboxylic acid]",25,100,100,50,
